Results published in patent US6599507B2, “Composition for the treatment of immune deficiencies and methods for its preparation and use” (Ardenia Investments, Ltd., priority 1998, dated 2003).
“Also recorded” adds a separate entry of the source.

B1: AFP: Alpha-fetoprotein isolated from human cord blood, more than 99% purity (protein, UniProt P02771 19-609, looked up)
Alpha-fetoprotein: RTLHRNEYGIASILDSYQCTAEISLADLATIFFAQFVQEATYKEVSKMVKDALTAIEKPTGDEQSSGCLENQLPAFLEELCHEKEILEKYGHSDCCSQSEEGRHNCFLAHKKPTPASIPLFQVPEPVTSCEAYEEDRETFMNKFIYEIARRHPFLYAPTILLWAARYDKIIPSCCKAENAVECFQTKAATVTKELRESSLLNQHACAVMKNFGTRTFQAITVTKLSQKFTKVNFTEIQKLVLDVAHVHEHCCRGDVLDCLQDGEKIMSYICSQQDTLSNKITECCKLTTLERGQCIIHAENDEKPEGLSPNLNRFLGDRDFNQFSSGEKNIFLASFVHEYSRRHPQLAVSVILRVAKGYQELLEKCFQTENPLECQDKGEEELQKYIQESQALAKRSCGLFQKLGEYYLQNAFLVAYTKKAPQLTSSELMAITRKMAATAATCCQLSEDKLLACGEGAADIIIGHLCIRHEMTPVNPGVGQCCTSSYANRRPCFSSLVVDETYVPPAFSDDKFIFHKDLCQAQGVALQTMKQEFLINLVKQKPQITEEQLEAVIADFSGLLEKCCQGQEQEVCFAEEGQKLISKTRAALGV
B2: Rat AFP: Rat alpha-fetoprotein isolated from neonatal rat serum by immunoaffinity (protein, UniProt P02773 25-611, looked up)
Alpha-fetoprotein: RVLHTNEFGIESTLDSSQCPTEKNMFNVATIVVAQFVQDATKAEVNKMSSDALAAMKENTGDGCLENQLSVFLDEICHETELSNKYGFSGCCNQSGVERHQCLLARKKTAPDSVPPFHFPETAESCPAYEENRAMSINTFIYDVSKRNPFLYAPTILYLAAQYDKAVPACCKADNMEECFQTKRASMAKELREGSMLNEHVCAVIRKFGSRNLQAVLIIKLSQKFPKANITEIRKLALDVAHIHEQCCHGNAMECLQDGESVMTHMCSQQEILSSKTAECCKLPTIELGYCIIHAENGDKPEGLTLNPSEFLGDRNFAQFSSEEKLLFMASFLHEYSRNHPNLPVSVILKTAKSYQEILEKCSQSETPSKCQDNMEEELQKHIQESQALAKQSCNLYQKLGPYYLQNLFLIGYTRKAPQLTSAELIDLTGKMVSIASTCCQLSEEKRSACGEGLADIYIGHLCLRHEANPVNSGINHCCSSSYSNRRLCITSFLRDETYVPPPFSEDKFIFHKDLCQAQGRALQTMKQELLINLVKQKPEMTEEQHAAVTADFSGLLEKCCKDQDQEACFAKEGPKLISKTREALGV

Legend:
[1] = test system: antibody-forming cells (AFC) in the spleen of mice immunized with sheep erythrocytes; assay: Humoral immune response: count of antibody-forming cells (AFC) in the spleen according to Cunningham; assay type: in vivo, mouse; details: for relative amount of AFC / total AFC amount: CBA mice, i.v., sheep erythrocytes i.p.; for immunogenic / immunostimulating activity, effect on humoral immune response (in words): mice immunized with sheep erythrocytes
Protocol: The influence of AFPIN-AAP complexes as well as their basic components on humoral immune response was estimated by counting the quantity of antibody-forming cells (AFC) in the spleen.
AFP was administered intravenously to 10 mouse males of CBA line (weight 18-22 g) in a dose of 0.009 mg per capita. Simultaneously 5% sheep erythrocytes suspension was injected peritoneally (0.2 ml per capita) to both control and experimental animals. The control animals were also injected with the equal volume of NaCl isotonic solution intravenously.
The effect of AFP on humoral immune response was analyzed by counting the quantity of AFC in the spleen according to Cunningham (Cunningham A. J., Nature, v.207, p. 1106-1107, 1965) (per 10^6 spleen cells and per spleen).
N-AAP was administered intravenously to 10 mouse males of CBA line (weight 18-22 g) in a dose of 0.09 mg per capita Simultaneously 5% sheep erythrocytes suspension was injected peritoneally (0.2 ml per capita). Control series were injected with 0.15 ml NaCl isotonic solution intravenously. The effect of N-AAP on humoral immune response was analysed by counting the quantity of AFC in the spleen according to Cunningham (per 10^6 spleen cells and per spleen).
(§1) 0.15 ml AFP/N-AAP complex was administered intravenously to 10 mouse males of CBA line (weight 18-22 g) in a dose of 0.009 mg AFP and 0.09 mg N-AAP per capita. Simultaneously 5% sheep erythrocytes suspension was injected peritoneally (0.2 ml per capita). Control series were intravenously injected with equal volumes of NaCl isotonic solution. The effect of the AFP/N-AAP complex on humoral immune response was analyzed by counting the quantity of AFC in the spleen according to Cunningham (per 10^6 spleen cells and per spleen).
as §1, with “0.045” for “0.09”
as §1, with “0.135” for “0.09”, “capita)” for “capita).”
In order to determine the effect of the inventive complex, 0.15 ml AFP/N-AAP complex was administered intravenously to 10 mouse males of CBA line (weight 18-22 g) in the dose of 0.009 mg rat AFP and 0.09 mg N-AAP per capita. Simultaneously 5% sheep erythrocytes suspension was injected peritoneally (0.2 ml per capita). Control series were injected intravenously with equal volumes of isotonic NaCl solution. The effect of rat AFP/N-AAP complex on humoral immune response was analyzed by counting the quantity of AFC in the spleen according to Cunningham (per 10^6 spleen cells and per spleen).

random breed male mice = assay: Acute toxicity, single intravenous injection, method of Litchfield and Wilcoxon; assay type: in vivo, mouse
Protocol: The toxicity of N-AAP was studied in random breed male mice (19-24 g). A water solution of N-AAP was injected once slowly in the tail vein of mice in a range of doses 40-70 mg/kg. Each group of mice included 6 animals, at least The assessment of acute toxicity was carried out according to the method of Litchfield et al. (Litchfield J. T., Wilcoxon F., J. Pharmacol. Exptl. Therap., Vol.96, P. 99-103, 1949).

human AFP = biological target: T1, human AFP (Homo sapiens, UniProt P02771); assay: Competitive substitution of [3H]arachidonic acid from the AFP binding site (Scatchard)
T1 construct: from tissue; host or cells: human cord blood
Protocol: To determine N-AAP affinity to human AFP a competitive substitution of [5, 6, 8, 9, 11, 12, 14, 15-^3H] arachidonic from the protein's binding site was used. To tubes containing 0.05 nM AFP in 1 ml 0.1 M bicarbonate buffer and 0.7 nM [3H] arachidonic acid and the increasing amounts of arachidonic acid or N-AAP (5-5000 nM) were added. The tubes were incubated for 2 hr at room temperature. To separate protein-bound and free fractions of [3H] arachidonic acid 0.5 ml of 0.5% suspension of activated carbon was added to each tube and incubated at 4° C. for 30 min. The carbon was sedimented by centrifugation at 3000 g, aliquots were added to 10 ml scintillating mixture and the vials were measured in beta-counter.
The binding parameters of arachidonic acid and N-AAP and the number of binding sites per protein molecule were calculated according to Scatchard (Scatchard O., Ann. N.Y. Acad. Sci. 51., p 660-664, 1949).

[2] = mice, single i.v. injection in tail vein

Row | Molecule | relative amount of AFC in comparison with control (in words) ([1]; 5-th day after injection) | relative amount of AFC ([1]; 5-th day after injection) [per 10^6 cells] | total AFC amount ([1]; 5-th day after injection) | immunogenic / immunostimulating activity, effect on humoral immune response (in words) [1] | DL10 (random breed male mice; [2]) | DL90 (random breed male mice; [2]) [mg/kg] | DL50 (random breed male mice; mice, single i.v. injection in tail vein, p = 0.05) | therapeutic index (random breed male mice; mouse, in vivo) | Ki (human AFP) [nM] | n (number of binding sites per protein molecule) (human AFP; three independent determinations, Scatchard) | total AFC amount in comparison with control (in words) ([1]; 5-th day after injection) | lower relative amount of AFC in comparison with control group ([1]; 5-th day after injection, AFP 0.009 mg per capita i.v.) [%]
1 | CCCCC/C=C\C/C=C\C/C=C\C/C=C\CCCC(=O)NCCOP(=O)(O)O [N-AAP, N-arachidonoyl aminoethylphosphate] | not significantly changed | 342.2±28.5 | 36.0±8.7 10^3 per spleen | does not exhibit immunogenic activity; also recorded: no immunogenic activity | 46 mg/kg; | 87 | 63 (54.8 ÷ 72.5) mg/kg at p = 0.05; | 10 | 333 | – | – | –
2 | CCCCC/C=C\C/C=C\C/C=C\C/C=C\CCCC(=O)O [arachidonic acid, reference compound] | – | – | – | – | – | – | – | – | – | > 1.2 | – | –
3 | B1 | – | 255.5±13 | 23.6±1.5 10^3 per spleen | reduces or does not significantly effect the immunogenic characteristics of sheep erythrocytes | – | – | – | – | – | – | not significantly changed | 30
4 | B2 | – | 428.1±11.5 | 60.3±13.5 10^3 per spleen | no immunogenic activity | – | – | – | – | – | – | – | –
